# Results as given in patent publication US20260283988A1, “FERROPTOSIS INHIBITORS” (priority 2023, published 2026).
# Read-outs that look alike come from different tables or passages of the source.
# Experiments:
# HT-1080 = assay: Ferroptosis inhibition, cell viability assay (CellTiter-Glo); type: cell-based, Human; conditions: for IC50: Homo sapiens; for cellular efficacy/toxicity window: cytotoxic IC50 versus ferroptosis inhibition IC50, 1080 min
# Description: Cell lines: Human fibrosarcoma cell line HT-1080 and immortalized Mouse Embryonic Fibroblasts (MEF). MEFs were a gift from Daniel Krappmann, HT-1080 were purchased from ATCC and both cell lines were grown in Dulbecco's Modified Eagle's medium (Thermo Fisher Scientific, 41966-029) supplemented with 10% fetal bovine serum (FBS, Thermo Fisher Scientific), 1% Penicillin-Streptomycin (Thermo Fisher Scientific) and 1% nonessential amino acids (MEM NEAA, Thermo Fisher Scientific). Cells were grown at 37° C. and 5% CO2.
# HT-1080 were seeded into 384-well plates (CulturPlates, PerkinElmer) with a density of 750 cells per well. After 24 h of growth, cells were treated with 10 or 12-point serial dilutions of compounds in indicated concentrations for 18 h. Viability was detected by using CellTiter-Glo® 2.0 Regent (Promega) according to the manufacturer's instruction and luminescence was read out in an EnVison 2104 Multilabel plate reader (PerkinElmer).
# [1] = Cytotoxicity, cell viability assay; type: cell-based, Human; conditions: human, ht-1080 cells, * = signal quenching at higher concentration, toxicity might be less than indicated; read-out: cytotoxic IC50
# Description: After 24 h of growth, cells were treated with 10 or 12-point serial dilutions of compounds in indicated concentrations for 18 h.
# [2] = HT-1080, based on the assays of example 1, read-out: IC50 (Ferroptosis inhibition)
SMILES,IC50 (HT-1080; [2]) [nM],cellular efficacy/toxicity window (HT-1080),CC50 at 18 h [1] [nM],"IC50 (HT-1080; HT-1080, read-out: IC50 (Ferroptosis inhibition)) [nM]"
"O=C1C(Cl)=C(Nc2ccc(F)cc2)C(=O)c2ccccc21 [iQFerr17, 2-chloro-3-(4-fluoroanilino)-1,4-naphtoquinone]",6.1,65-fold,397,
"O=C1C(Cl)=C(Nc2ccccc2)C(=O)c2ccccc21 [iQFerr16, 2-anilino-3-chloro-1,4-naphtoquinone]",4.5,62-fold,279,
"CC1=C(Nc2ccc(C)cc2)C(=O)c2ccccc2C1=O [iQFerr45, 2-methyl-3-[(4-methylphenyl)amino]-1,4-dihydronaphthalene-1,4-dione]",1.56,25634-fold,40000,
"Cc1ccc(N(CCCC(=O)O)C2=CC(=O)c3ccccc3C2=O)c(C)c1 [iQFerr42, 4-[(2,4-dimethylphenyl)(1,4-dioxo-1,4-dihydronaphthalen-2-yl)amino]butanoic acid]",463,"0,47-fold",219,
"COc1ccc(CC2=CC(=O)c3ccccc3C2=O)cc1 [iQFerr31, 2-(4-methoxybenzyl)-1,4-naphtoquinone]",1060,8-fold,8700,
"CC(=O)Nc1ccc(N(CCCCCC(N)=O)C2=CC(=O)c3ccccc3C2=O)cc1 [iQFerr49, 6-[(1,4-dioxo-1,4-dihydronaphthalen-2-yl)(4-acetamidophenyl)amino] hexanamide]",22.8,4895-fold,112000,
"CCOc1ccc(NC2=CC(=O)c3ccccc3C2=O)cc1 [iQFerr21, 2-(4-ethoxyanilino)-1,4-naphtoquinone]",43,199-fold,8570,
"O=C(O)c1ccc(NC2=C(Cl)C(=O)c3ccccc3C2=O)cc1 [iQFerr18, 4-[(3-chloro-1,4-dioxo-1,4-dihydronaphthalen-2-yl)amino]benzoic acid]",94.1,27-fold,2550,
"COc1ccc(NC2=C(Cl)C(=O)c3ccccc3C2=O)cc1 [iQFerr12, 2-chloro-3-(4-methoxyanilino)-1,4-naphtoquinone]",6,586-fold,3520,
"O=C1C(Cl)=C(Nc2ccc(O)cc2)C(=O)c2ccccc21 [iQFerr11, 2-chloro-3-(4-hydroxy-phenylamino)-1,4-naphtoquinone]",6,48-fold,293,
"CN(C)c1ccc(C(C2=C(O)C(=O)c3ccccc3C2=O)c2ccccc2)cc1 (centres unmarked) [iQFerr33, 2-[(4-dimethylamino-phenyl)phenylmethyl]-3-hydroxy-1,4-naphtoquinone]",7580,9-fold,71800,
"O=C1C(O)=C(C(c2ccccc2)c2ccc(F)cc2)C(=O)c2ccccc21 (centres unmarked) [iQFerr34, 2-[(4-fluorophenyl)-phenylmethyl]-3-hydroxy 1,4-naphtoquinone]",,,35000,71400
"CC(=O)Nc1ccc(NC2=C(Cl)C(=O)c3ccccc3C2=O)cc1 [iQFerr36, N-{4-[(3-chloro-1,4-dioxo-1,4-dihydronaphthalen-2 yl)amino]phenyl} acetamide]",7.36,77-fold,564,
"O=C1C=C(Nc2ccccc2C(=O)O)C(=O)C=C1Nc1ccccc1C(=O)O [QFerr26, 2,2-(3,6-dioxo-1,4-cyclohexadiene-1,4-diyl-diimino)dibenzoic acid]",> 100000,,35400,
"O=C1c2ccccc2C(=O)c2c1c(-c1ccccc1)nn2-c1ccccc1 [iQFerr24, 1,3-diphenyl-1H-benzo-f-indazole-4,9-dione]",> 100000,,,
"Cc1ccc(NC2=CC(=O)C=CC2=O)c(C)c1 [iQFerr25, 2-(2,4-dimethylanilino)-benzo-1,4-quinone]",176,5-fold,759,
